Reference: publication PMC6199744, “Development of Chemical Proteomics for the Folateome and Analysis of the Kinetoplastid Folateome” (ACS Infectious Diseases, 2018)
Like-named read-outs stand apart in the source and are kept apart here.

How the values were obtained:
Format in all cases: binding
[1] = biological target: T1, HeLa cell extract proteins (Homo sapiens, UniProt Q9UHD8)
T1 construct: endogenous in cells; host or cells: HeLa cell extract
T1 sequence (Q9UHD8 1-586): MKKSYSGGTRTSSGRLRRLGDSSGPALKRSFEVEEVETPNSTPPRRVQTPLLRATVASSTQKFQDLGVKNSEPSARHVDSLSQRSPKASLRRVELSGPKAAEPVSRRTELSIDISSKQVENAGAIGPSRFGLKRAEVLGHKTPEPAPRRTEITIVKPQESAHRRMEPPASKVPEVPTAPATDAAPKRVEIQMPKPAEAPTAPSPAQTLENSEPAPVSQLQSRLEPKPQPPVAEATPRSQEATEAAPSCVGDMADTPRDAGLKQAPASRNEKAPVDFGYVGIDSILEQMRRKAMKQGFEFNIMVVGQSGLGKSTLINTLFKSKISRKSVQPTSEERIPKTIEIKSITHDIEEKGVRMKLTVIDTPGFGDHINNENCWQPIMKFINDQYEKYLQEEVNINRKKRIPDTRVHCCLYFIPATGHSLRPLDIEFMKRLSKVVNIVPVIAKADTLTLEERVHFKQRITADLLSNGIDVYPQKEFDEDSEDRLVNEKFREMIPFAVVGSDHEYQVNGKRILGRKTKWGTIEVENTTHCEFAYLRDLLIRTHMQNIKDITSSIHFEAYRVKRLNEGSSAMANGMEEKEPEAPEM

[2] = biological target: T2, HeLa cell extract proteins (Homo sapiens, UniProt P45954)
T2 construct: endogenous in cells; host or cells: HeLa cell extract

[3] = biological target: T3, HeLa cell extract proteins (Homo sapiens, UniProt O94855)
T3 construct: endogenous in cells; host or cells: HeLa cell extract
T3 sequence (O94855 1-1032): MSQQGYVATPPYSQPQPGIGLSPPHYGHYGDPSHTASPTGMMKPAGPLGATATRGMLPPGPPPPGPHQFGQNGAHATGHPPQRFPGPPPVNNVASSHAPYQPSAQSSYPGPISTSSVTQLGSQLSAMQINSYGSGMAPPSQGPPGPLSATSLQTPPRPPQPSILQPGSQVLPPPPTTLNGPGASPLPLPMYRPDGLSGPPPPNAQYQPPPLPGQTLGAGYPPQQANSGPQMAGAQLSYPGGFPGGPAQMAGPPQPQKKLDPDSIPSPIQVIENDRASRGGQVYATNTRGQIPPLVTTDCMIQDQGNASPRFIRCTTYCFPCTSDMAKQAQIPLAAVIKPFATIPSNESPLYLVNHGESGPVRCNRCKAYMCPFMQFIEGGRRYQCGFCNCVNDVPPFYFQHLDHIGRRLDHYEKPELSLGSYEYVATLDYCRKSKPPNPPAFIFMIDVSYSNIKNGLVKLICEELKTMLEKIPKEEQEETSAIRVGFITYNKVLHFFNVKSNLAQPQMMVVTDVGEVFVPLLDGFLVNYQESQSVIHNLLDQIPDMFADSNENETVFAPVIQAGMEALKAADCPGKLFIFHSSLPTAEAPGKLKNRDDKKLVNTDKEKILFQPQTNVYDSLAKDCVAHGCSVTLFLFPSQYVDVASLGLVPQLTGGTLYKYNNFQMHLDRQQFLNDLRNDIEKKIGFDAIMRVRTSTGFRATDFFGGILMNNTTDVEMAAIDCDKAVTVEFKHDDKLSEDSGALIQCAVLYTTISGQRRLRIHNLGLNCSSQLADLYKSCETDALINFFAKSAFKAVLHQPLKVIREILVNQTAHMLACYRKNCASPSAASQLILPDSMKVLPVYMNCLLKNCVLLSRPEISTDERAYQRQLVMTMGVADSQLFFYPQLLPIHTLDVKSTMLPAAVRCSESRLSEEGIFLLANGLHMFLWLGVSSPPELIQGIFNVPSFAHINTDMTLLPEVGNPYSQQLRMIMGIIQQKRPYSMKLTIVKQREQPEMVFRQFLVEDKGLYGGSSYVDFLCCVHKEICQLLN

[4] = biological target: T4, HeLa cell extract proteins (Homo sapiens, UniProt O00231)
T4 construct: endogenous in cells; host or cells: HeLa cell extract
T4 sequence (O00231 whole entry): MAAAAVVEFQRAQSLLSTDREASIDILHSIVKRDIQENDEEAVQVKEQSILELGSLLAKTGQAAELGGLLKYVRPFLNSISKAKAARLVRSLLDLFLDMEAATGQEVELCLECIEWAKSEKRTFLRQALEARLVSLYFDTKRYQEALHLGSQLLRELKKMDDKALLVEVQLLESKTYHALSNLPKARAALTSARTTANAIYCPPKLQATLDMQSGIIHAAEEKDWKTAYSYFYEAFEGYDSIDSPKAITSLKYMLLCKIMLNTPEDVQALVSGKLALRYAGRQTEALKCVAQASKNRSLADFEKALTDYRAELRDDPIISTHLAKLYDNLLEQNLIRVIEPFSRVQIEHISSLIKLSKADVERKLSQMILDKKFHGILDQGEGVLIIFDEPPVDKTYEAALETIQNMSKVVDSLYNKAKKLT

[5] = biological target: T5, HeLa cell extract proteins (Homo sapiens, UniProt P35237); conditions: protein SERPINB6; HeLa
T5 construct: endogenous in cells; host or cells: HeLa cell extract
T5 sequence (P35237 1-376): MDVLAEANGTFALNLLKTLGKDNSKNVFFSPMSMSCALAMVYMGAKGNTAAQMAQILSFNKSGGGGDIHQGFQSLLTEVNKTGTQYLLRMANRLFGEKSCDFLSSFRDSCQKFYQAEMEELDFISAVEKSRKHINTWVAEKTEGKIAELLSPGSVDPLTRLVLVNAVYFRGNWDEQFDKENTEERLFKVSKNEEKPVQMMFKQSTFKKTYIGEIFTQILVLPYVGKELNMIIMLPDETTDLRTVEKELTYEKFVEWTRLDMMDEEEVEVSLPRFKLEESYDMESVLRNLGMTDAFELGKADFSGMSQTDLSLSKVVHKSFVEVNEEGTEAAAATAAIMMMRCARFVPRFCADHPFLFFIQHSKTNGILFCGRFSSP

[6] = biological target: T6, HeLa cell extract proteins (Homo sapiens, UniProt Q9BUF5); conditions: HeLa; protein TUBB6
T6 construct: endogenous in cells; host or cells: HeLa cell extract
T6 sequence (Q9BUF5 whole entry): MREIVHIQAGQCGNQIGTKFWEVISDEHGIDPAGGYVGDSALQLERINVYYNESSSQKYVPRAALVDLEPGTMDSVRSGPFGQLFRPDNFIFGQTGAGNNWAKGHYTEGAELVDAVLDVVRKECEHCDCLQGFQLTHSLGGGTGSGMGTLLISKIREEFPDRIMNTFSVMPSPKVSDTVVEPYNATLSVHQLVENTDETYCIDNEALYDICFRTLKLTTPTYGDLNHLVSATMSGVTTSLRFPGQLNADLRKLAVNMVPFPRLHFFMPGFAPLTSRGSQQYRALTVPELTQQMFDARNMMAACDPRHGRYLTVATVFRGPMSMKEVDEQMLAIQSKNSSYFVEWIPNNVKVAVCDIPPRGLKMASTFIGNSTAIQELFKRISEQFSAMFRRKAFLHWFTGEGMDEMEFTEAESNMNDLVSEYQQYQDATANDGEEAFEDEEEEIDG

SMILES	fold changes relative to vehicle control ([1]; protein SEPT9, HeLa)	fold changes relative to vehicle control ([2]; HeLa, protein ACADSB)	fold changes relative to vehicle control ([3]; HeLa, captured protein SEC24D)	fold changes relative to vehicle control ([4]; protein PSMD11, HeLa)	fold changes relative to vehicle control [5]	fold changes relative to vehicle control [6]	other results
Nc1nc2c(c(=O)[nH]1)N(C=O)C(CNc1ccc(C(=O)N[C@@H](CCC(=O)O)C(=O)O)cc1)CN2 (stereo partly shown) [LEU, leucovorin]	0.93	0.9	1.12	1.03	–	–	–
NCCCNc1ccc(C(=O)NC(CCC(=O)O)C(=O)O)cc1 (stereo not shown) [compound 7]	0.92	1.02	1.04	0.9	–	–	–
CCCCCCOc1cccc(Cc2cnc(N)nc2N)c1 [compound 2]	–	–	–	–	1.61	0.91	–
CCCCCCOc1ccc(Cc2cnc(N)nc2N)cc1 [compound 1]	–	–	–	–	1.14	0.7	–
Nc1nc2cccc(-c3ccccc3)c2n1Cc1ccc(Cl)c(Cl)c1 [compound 3]	–	–	–	–	0.92	1.19	–
NCCOCCOCC(=O)Nc1nc2ncc(CNc3ccc(C(=O)NC(CCC(=O)O)C(=O)O)cc3)nc2c(=O)[nH]1 (stereo not shown) [compound 6]	1	0.96	1.15	1.11	–	–	–
Nc1nc2[nH]cc(CCc3ccc(C(=O)N[C@@H](CCC(=O)O)C(=O)O)cc3)c2c(=O)[nH]1 [PTX, pemetrexed]	–	–	–	–	–	–	fold changes relative to vehicle control [1]: 0.96; fold changes relative to vehicle control [2]: 0.93; fold changes relative to vehicle control [3]: 1.09; fold changes relative to vehicle control [4]: 1.02
